Test results reported in PubChem BioAssay AID248 (DTP/NCI, 2004).
Several values for one entry are separate records, joined by “and”; a condition that tells them apart may be missing. Equal values may be shown once. Toxic doses and inconclusive results are not listed. Rule as the data show it: active = T/C of 150% or more; inactive = T/C below 125%. Peptide text beside a SMILES is read from it. * marks the point of attachment. ONp = O=[N+]([O-])c1ccc(O*)cc1; Cbz = O=C(OCc1ccccc1)*

System: L1210 leukemia ip in BDF1 mice, survival T/C
Experiment: NCI In Vivo Anticancer Drug Screen. Data for tumor model L1210 Leukemia (intraperitoneal) in B6D2F1 (BDF1) mice
Details: endpoint: mean survival time, higher = longer survival
How it was run: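 Antitumor effect is assessed in tumor-bearing animals. Survival in the compound arm is compared with a vehicle-dosed control arm and expressed as their quotient.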

[1] = dose: 100.0 mg/kg/injection, schedule: Q01DX001 (ip), vehicle: saline
[2] = dose: 100.0 mg/kg/injection, schedule: Q04DX002 (ip), vehicle: Klucel (hydroxypropylcellulose) (HPC)
[3] = dose: 200.0 mg/kg/injection, schedule: Q01DX001 (ip), vehicle: saline
[4] = dose: 200.0 mg/kg/injection, schedule: Q04DX002 (ip), vehicle: Klucel (hydroxypropylcellulose) (HPC)
[5] = dose: 400.0 mg/kg/injection, schedule: Q01DX001 (ip), vehicle: saline
[6] = dose: 400.0 mg/kg/injection, schedule: Q04DX002 (ip), vehicle: Klucel (hydroxypropylcellulose) (HPC)
[7] = dose: 100.0 mg/kg/injection, schedule: Q01DX009 (ip), vehicle: Klucel (hydroxypropylcellulose) (HPC)
[8] = dose: 100.0 mg/kg/injection, schedule: Q01DX009 (ip), vehicle: saline
[9] = dose: 100.0 mg/kg/injection, schedule: Q04DX003 (ip), vehicle: saline
[10] = dose: 200.0 mg/kg/injection, schedule: Q01DX009 (ip), vehicle: saline
[11] = dose: 200.0 mg/kg/injection, schedule: Q04DX003 (ip), vehicle: saline
[12] = dose: 400.0 mg/kg/injection, schedule: Q01DX009 (ip), vehicle: saline
[13] = dose: 400.0 mg/kg/injection, schedule: Q04DX003 (ip), vehicle: saline
[14] = dose: 100.0 mg/kg/injection, schedule: Q01DX001 (ip), vehicle: carboxymethylcellulose (CMC)
[15] = dose: 200.0 mg/kg/injection, schedule: Q01DX001 (ip), vehicle: carboxymethylcellulose (CMC)
[16] = dose: 400.0 mg/kg/injection, schedule: Q01DX001 (ip), vehicle: carboxymethylcellulose (CMC)
[17] = dose: 100.0 mg/kg/injection, schedule: Q01DX009 (ip), vehicle: saline with Tween-80
[18] = dose: 100.0 mg/kg/injection, schedule: Q04DX003 (ip), vehicle: saline with Tween-80
[19] = dose: 200.0 mg/kg/injection, schedule: Q01DX009 (ip), vehicle: saline with Tween-80
[20] = dose: 200.0 mg/kg/injection, schedule: Q04DX003 (ip), vehicle: saline with Tween-80
[21] = dose: 400.0 mg/kg/injection, schedule: Q04DX003 (ip), vehicle: saline with Tween-80
[22] = dose: 100.0 mg/kg/injection, schedule: Q04DX003 (ip), vehicle: Klucel (hydroxypropylcellulose) (HPC)
[23] = dose: 200.0 mg/kg/injection, schedule: Q04DX003 (ip), vehicle: Klucel (hydroxypropylcellulose) (HPC)
[24] = dose: 400.0 mg/kg/injection, schedule: Q04DX003 (ip), vehicle: Klucel (hydroxypropylcellulose) (HPC)
[25] = dose: 200.0 mg/kg/injection, schedule: Q01DX009 (ip), vehicle: Klucel (hydroxypropylcellulose) (HPC)

Measured: T/C

[O]=[Nb]
inactive: dose: 2.5 mg/kg/injection, schedule: Q01DX009 (ip), vehicle: saline with Tween-80 95 % of control | dose: 5.0 mg/kg/injection, schedule: Q01DX009 (ip), vehicle: saline with Tween-80 96 % of control | dose: 10.0 mg/kg/injection, schedule: Q01DX009 (ip), vehicle: saline with Tween-80 97 % of control

CCOC(=O)C(=Cc1ccccc1)C(=O)OCC
inactive: [1] 96 % of control | [2] 98 % of control | [3] 100 % of control | [4] 95 % of control | [5] 100 % of control | [6] 102 % of control

Cc1ccc(S(=O)(=O)NC(CCl)=NCc2ccccc2)cc1
inactive: [2] 96 % of control | [4] 100 % of control | [6] 114 % of control

CC(=O)OCC(=O)[C@@]1(O)CC[C@H]2[C@@H]3CCC4=CC(=O)C=C[C@]4(C)[C@H]3[C@@H](O)C[C@@]21C
inactive: dose: 50.0 mg/kg/injection, schedule: Q04DX003 (sc), vehicle: steriod suspending solution 97 % of control | dose: 100.0 mg/kg/injection, schedule: Q04DX003 (sc), vehicle: steriod suspending solution 94 % of control | dose: 200.0 mg/kg/injection, schedule: Q04DX003 (sc), vehicle: steriod suspending solution 96 % of control | dose: 400.0 mg/kg/injection, schedule: Q04DX003 (sc), vehicle: steriod suspending solution 106 % of control

N#CC1(c2ccccc2)CCCC1(C#N)c1ccccc1 (stereo not given)
inactive: dose: 75.0 mg/kg/injection, schedule: Q01DX001 (ip), vehicle: carboxymethylcellulose (CMC) 86 % of control | dose: 150.0 mg/kg/injection, schedule: Q01DX001 (ip), vehicle: carboxymethylcellulose (CMC) 88 % of control | dose: 300.0 mg/kg/injection, schedule: Q01DX001 (ip), vehicle: carboxymethylcellulose (CMC) 86 % of control

C/C(=N/NC(N)=O)C1CC2CCC1C2 (stereo not given)
inactive: [1] 98 % of control | dose: 100.0 mg/kg/injection, schedule: Q01DX009 (ip), vehicle: gum acacia 102 % of control | dose: 100.0 mg/kg/injection, schedule: Q04DX003 (ip), vehicle: gum acacia 93 % of control | [3] 101 % of control | dose: 200.0 mg/kg/injection, schedule: Q01DX009 (ip), vehicle: gum acacia 94 % of control | dose: 200.0 mg/kg/injection, schedule: Q04DX003 (ip), vehicle: gum acacia 95 % of control | dose: 400.0 mg/kg/injection, schedule: Q04DX003 (ip), vehicle: gum acacia 90 % of control

O=[N+]([O-])c1ccc(S(=O)C2CCCCC2Cl)c([N+](=O)[O-])c1 (stereo not given)
inactive: [7] 111 % of control

O=C(CCC(=O)c1ccccc1)OCc1ccccc1
inactive: [2] 96 % of control | [4] 86 % of control

CC(=O)Nc1cccc(N=Cc2ccc(N(CCOS(C)(=O)=O)CCOS(C)(=O)=O)cc2C)c1
inactive: dose: 8.0 mg/kg/injection, schedule: Q01DX009 (ip), vehicle: saline with Tween-80 120 % of control

CCOC(=O)c1ccc(N=Cc2cnc3nc(NC(C)=O)[nH]c(=O)c3n2)cc1
inactive: dose: 100.0 mg/kg/injection, schedule: Q01DX001 (ip), vehicle: other 103 % of control | dose: 200.0 mg/kg/injection, schedule: Q01DX001 (ip), vehicle: other 96 % of control | dose: 400.0 mg/kg/injection, schedule: Q01DX001 (ip), vehicle: other 103 % of control

COc1ccc2nc(C)c(COC(C)=O)c(Cl)c2c1
inactive: [8] 102 % of control | [9] 100 % of control | [10] 92 % of control | [11] 96 % of control | [12] 97 % of control | [13] 112 % of control

Cc1ccnc2c3c4c(cc12)c(C)cc(=O)n4CO3
inactive: dose: 75.0 mg/kg/injection, schedule: Q01DX001 (ip), vehicle: Klucel (hydroxypropylcellulose) (HPC) 104 % of control | dose: 150.0 mg/kg/injection, schedule: Q01DX001 (ip), vehicle: Klucel (hydroxypropylcellulose) (HPC) 95 % of control | dose: 150.0 mg/kg/injection, schedule: Q01DX009 (ip), vehicle: Klucel (hydroxypropylcellulose) (HPC) 114 % of control | dose: 300.0 mg/kg/injection, schedule: Q01DX001 (ip), vehicle: Klucel (hydroxypropylcellulose) (HPC) 98 % of control

Cc1ccc(S(=O)(=O)N=S(C)C)cc1
inactive: dose: 50.0 mg/kg/injection, schedule: Q01DX001 (ip), vehicle: carboxymethylcellulose (CMC) 104 % of control | [14] 104 % of control | [15] 98 % of control | [16] 93 % of control | dose: 800.0 mg/kg/injection, schedule: Q01DX001 (ip), vehicle: carboxymethylcellulose (CMC) 105 % of control | dose: 1200.0 mg/kg/injection, schedule: Q01DX001 (ip), vehicle: carboxymethylcellulose (CMC) 103 % of control | dose: 1600.0 mg/kg/injection, schedule: Q01DX001 (ip), vehicle: carboxymethylcellulose (CMC) 109 % of control

O=C(CNC(=O)OCc1ccccc1)NCC(=O)Oc1ccc([N+](=O)[O-])cc1 (Cbz-Gly-Gly-ONp)
inactive: [17] 108 % of control | [18] 92 % of control | [19] 105 % of control | [20] 94 % of control | dose: 400.0 mg/kg/injection, schedule: Q01DX009 (ip), vehicle: saline with Tween-80 100 % of control | [21] 92 % of control

CC(C)/C(=N\Nc1ccc([N+](=O)[O-])cc1[N+](=O)[O-])c1ccccc1
inactive: [18] 96 % of control | [20] 106 % of control | [21] 100 % of control

O=C(OCC(COC(=O)c1ccccc1)(COC(=O)c1ccccc1)[N+](=O)[O-])c1ccccc1
inactive: [22] 92 % of control | [23] 92 % of control | [24] 94 % of control

CC1OC2COC(C)OC2C(C(O)COC(=O)c2ccc([N+](=O)[O-])cc2)O1 (stereo not given)
inactive: [8] 98 % of control | [9] 110 % of control | [10] 98 % of control | [11] 104 % of control | [12] 103 % of control | [13] 101 % of control

O=C(O)CC(NC(=O)OCc1ccccc1)C(=O)O (stereo not given)
inactive: dose: 50.0 mg/kg/injection, schedule: Q01DX009 (ip), vehicle: Klucel (hydroxypropylcellulose) (HPC) 95 % of control | [7] 92 % of control | [8] 114 % of control | [25] 98 % of control | [10] 113 % of control | [12] 107 % of control

O=C(Nc1ccsc1)c1ccccc1
inactive: [14] 110 % of control | dose: 177.6 mg/kg/injection, schedule: Q01DX001 (ip), vehicle: carboxymethylcellulose (CMC) 98 % of control | [15] 91 % of control | dose: 266.8 mg/kg/injection, schedule: Q01DX001 (ip), vehicle: carboxymethylcellulose (CMC) 100 % of control | [16] 90 % of control | dose: 600.0 mg/kg/injection, schedule: Q01DX001 (ip), vehicle: carboxymethylcellulose (CMC) 102 % of control

O=CN1CCN(c2ccccc2)CC1
inactive: [2] 97 % of control | [4] 87 % of control | [6] 91 % of control

COC(=O)c1ccc(OC(=O)Nc2ccccc2[N+](=O)[O-])cc1
inactive: [17] 97 % of control and 101 % of control | dose: 100.0 mg/kg/injection, schedule: Q04DX002 (ip), vehicle: saline with Tween-80 104 % of control and 110 % of control | [18] 107 % of control | [19] 96 % of control and 92 % of control | dose: 200.0 mg/kg/injection, schedule: Q04DX002 (ip), vehicle: saline with Tween-80 103 % of control and 104 % of control | [20] 113 % of control | dose: 400.0 mg/kg/injection, schedule: Q04DX002 (ip), vehicle: saline with Tween-80 94 % of control | [21] 101 % of control

O=C(OC12CCCCC(CCCC1)O2)c1ccc([N+](=O)[O-])cc1
inactive: [1] 91 % of control | [3] 93 % of control | [5] 98 % of control

COc1cc2ccc(Cc3nccc4cc(OC)c(OC)cc34)cc2cc1OC
inactive: [7] 91 % of control | [22] 100 % of control | [25] 106 % of control | [23] 92 % of control | dose: 400.0 mg/kg/injection, schedule: Q01DX009 (ip), vehicle: Klucel (hydroxypropylcellulose) (HPC) 101 % of control | [24] 92 % of control
